Consider 36 molecules from article PMC3265452 (PLoS Neglected Tropical Diseases, 2012).

Structures can show the parent of a compound that is named as a salt.

For one experiment, the target named is AaDOP2 (Aedes aegypti, UniProt H6D5H2). Briefly: AaDOP2 antagonist screen of the LOPAC1280 library (HEK-CRELuc-Aadop2 cells, luminescence). The experiment is classed as cell-based.
Sequence of AaDOP2 (H6D5H2 1-476): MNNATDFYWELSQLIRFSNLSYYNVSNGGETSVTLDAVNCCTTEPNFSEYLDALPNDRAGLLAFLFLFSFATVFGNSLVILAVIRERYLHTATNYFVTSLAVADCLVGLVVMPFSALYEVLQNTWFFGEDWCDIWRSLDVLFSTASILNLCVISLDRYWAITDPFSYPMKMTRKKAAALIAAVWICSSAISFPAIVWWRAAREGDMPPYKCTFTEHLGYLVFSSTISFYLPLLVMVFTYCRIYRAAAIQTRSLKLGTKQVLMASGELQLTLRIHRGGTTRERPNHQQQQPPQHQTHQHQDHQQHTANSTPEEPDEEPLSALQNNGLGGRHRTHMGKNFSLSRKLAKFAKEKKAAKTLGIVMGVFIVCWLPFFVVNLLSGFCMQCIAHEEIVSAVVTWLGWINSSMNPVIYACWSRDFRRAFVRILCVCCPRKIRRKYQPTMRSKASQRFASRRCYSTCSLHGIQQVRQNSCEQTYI
Conditions: not given
As to `Nc1ccncc1` [Compound 12, 4-Aminopyridine], the “Compound effect (percent receptor signaling in presence of test compound, relative lux units relative to the SCH23390 control)” value was 110.
Turning to `CN1[C@@H]2CC[C@H]1C[C@@H](OC(=O)C(CO)c1ccccc1)C2` (stereo partly drawn) [Compound 13, Atropine sulfate], the “Compound effect (percent receptor signaling in presence of test compound, relative lux units relative to the SCH23390 control)” value was determined as 78.
Regarding `C[N+]1(C)[C@@H]2CC[C@H]1C[C@@H](OC(=O)C(CO)c1ccccc1)C2` (stereo partly drawn) [Compound 14, Atropine methyl nitrate], the “Compound effect (percent receptor signaling in presence of test compound, relative lux units relative to the SCH23390 control)” value came to 112.
On the same count and under the same terms, under `NC(N)=NCCCCN=C(N)N` [Compound 15, Arcaine sulfate] stands 122.
Same read-out and setting: under `Cl.NC1(C(=O)O)CC1` [Compound 16, 1-Aminocyclopropanecarboxylic acid hydrochloride] stands 104; under `Cl.NCCCCNS(=O)(=O)c1ccc2c(Cl)cccc2c1` [Compound 18, N-(4-Aminobutyl)-5-chloro-2-naphthalenesulfonamide hydrochloride], 97.
Regarding `O=C(O)[C@@H]1CCN1` [Compound 19, L-azetidine-2-carboxylic acid], the “Compound effect (percent receptor signaling in presence of test compound, relative lux units relative to the SCH23390 control)” value is on record as 115.
The same measure, in the same setting: for `NC(=O)c1cccc(N)c1` [Compound 21, 3-aminobenzamide] the value was 96; for `COC(=O)[C@H]1[C@H]2C[C@@H]3c4[nH]c5cc(OC)ccc5c4CCN3C[C@H]2C[C@@H](OC(=O)c2cc(OC)c(OC)c(OC)c2)[C@@H]1OC` [Compound 24, Reserpine], 113; for `NC12CC3CC(CC(C3)C1)C2` [Compound 25, Amantadine hydrochloride], 84.
Same read-out and setting: under `Cn1c(=O)c2[nH]cnc2n(C)c1=O.Cn1c(=O)c2[nH]cnc2n(C)c1=O.NCCN` [Compound 26, Aminophylline ethylenediamine] stands 129; under `Nc1nc(N)c2nc(CNc3ccc(C(=O)N[C@@H](CCC(=O)O)C(=O)O)cc3)cnc2n1` [Compound 28, Aminopterin], 112.
On the same count and under the same terms, for `CC(=O)NCCc1c[nH]c2ccc(O)cc12` [Compound 29, N-Acetyl-5-hydroxytryptamine] the value was 110; for `O=C(O)C1=CC(=C(c2ccc(O)c(C(=O)O)c2)c2ccc(O)c(C(=O)O)c2)C=CC1=O` [Compound 30, Aurintricarboxylic acid], 132; for `CCCCC/C=C\C/C=C\C/C=C\C/C=C\CCCC(=O)NCC(=O)O` [Compound 32, N-arachidonylglycine], 116.
Consider `NCCCC(=O)O` [Compound 33, GABA], for which the “Compound effect (percent receptor signaling in presence of test compound, relative lux units relative to the SCH23390 control)” value is recorded as 102.
In the case of `Cc1cn([C@H]2C[C@H](N=[N+]=[N-])[C@@H](CO)O2)c(=O)[nH]c1=O` [Compound 34, 3'-Azido-3'-deoxythymidine], the “Compound effect (percent receptor signaling in presence of test compound, relative lux units relative to the SCH23390 control)” value was found to be 114.
Same read-out and setting: for `CC(=O)OC(C)C[N+](C)(C)C.[Cl-]` (stereo not drawn) [Compound 35, Acetyl-beta-methylcholine chloride] the value was 127; for `Nc1ncn([C@@H]2O[C@H](CO)[C@@H](O)[C@H]2O)c(=O)n1` [Compound 36, 5-azacytidine], 103; for `CCN(c1nc(N)c(C(=O)NC(=N)N)nc1Cl)C(C)C` [Compound 37, 5-(N-Ethyl-N-isopropyl)amiloride], 75.
For the molecule `N#CCCN.N#CCCN.O=C(O)/C=C/C(=O)O` [Compound 38, 3-Aminopropionitrile fumarate], the “Compound effect (percent receptor signaling in presence of test compound, relative lux units relative to the SCH23390 control)” value was 100.
Still for that read-out and setting: for `O=c1cc(-c2ccc(O)cc2)oc2cc(O)cc(O)c12` [Compound 39, Apigenin] the value was 21; for `Cl.NC1C=CC=C(C(=O)O)C1` (stereo not drawn) [Compound 41, Gabaculine hydrochloride], 106.
Same read-out and setting: for `CC1=C(C)C(=O)C(CCCCC#CCCCC#CCO)=C(C)C1=O` [Compound 43, AA-861] the value was 69; for `Cl.Nc1c2c(nc3ccccc13)CCCC2` [Compound 44, 9-Amino-1,2,3,4-tetrahydroacridine hydrochloride], 206.
Still for that read-out and setting: for `O=C(O)CCC/C=C\C[C@@H]1[C@@H](/C=C/[C@H](O)C2Cc3ccccc3C2)[C@@H](F)C[C@@H]1O` [Compound 45, AL-8810] the value was 102; for `Nn1nnc2ccccc21` [Compound 46, 1-Aminobenzotriazole], 141.
On to `CN1CCc2cccc3c2[C@H]1Cc1ccc(O)c(O)c1-3` [Compound 48, Apomorphine hydrochloride hemihydrate], for which the “Compound effect (percent receptor signaling in presence of test compound, relative lux units relative to the SCH23390 control)” value is 54.

Staying with this experiment, now noted: 10 µM compound, 300 nM dopamine, 2 hr; hit = compound effect <20.
In the case of `CCN(CC)CCCCCCCCOC(=O)c1cc(OC)c(OC)c(OC)c1.Cl` [Compound 11, TMB-8 hydrochloride], the “Compound effect (percent receptor signaling in presence of test compound, relative lux units relative to the SCH23390 control)” value was found to be 98%.
With `CC(N)=O` [Compound 17, Acetamide], the “Compound effect (percent receptor signaling in presence of test compound, relative lux units relative to the SCH23390 control)” value came out at 108%.
For the molecule `Cl.Nc1cc(Cl)c(N=C2NCCN2)c(Cl)c1` [Compound 20, p-Aminoclonidine hydrochloride], the “Compound effect (percent receptor signaling in presence of test compound, relative lux units relative to the SCH23390 control)” value was found to be 79%.
Still for that read-out and setting: for `Nc1ccc2c3c(cccc13)C(=O)NC2=O` [Compound 23, 4-Amino-1,8-naphthalimide] the value was 104%; for `[N-]=[N+]=Nc1ccc(C(=O)CSC[C@H](NC(=O)CC[C@H](N)C(=O)O)C(=O)NCC(=O)O)cc1` [Compound 27, S-(p-Azidophenacyl)glutathione], 105%; for `Cl.NCCCCCCNS(=O)(=O)c1cccc2c(Cl)cccc12` [Compound 40, W-7 hydrochloride], 87%.
With `NCCCS(=O)(=O)O.[Na]` [Compound 47, 3-Amino-1-propanesulfonic acid sodium], the “Compound effect (percent receptor signaling in presence of test compound, relative lux units relative to the SCH23390 control)” value turned out to be 94%.
Still for that read-out and setting: under `Cl.NOCC(=O)O.NOCC(=O)O` [Compound 49, O-(Carboxymethyl)hydroxylamine hemihydrochloride] stands 97%.
